The target of this assay is HCoV-229E 3CL protease (Human coronavirus 229E, UniProt P0C6U2). As to the kind of experiment: FRET based protease assay, HCoV-229E 3CL. It is filed as biochemical. To be noted: 229E IC50, 6 nM H229E-CoV Chis-3CLpro, 6 μM peptide 1 substrate, 25° C., 1.5 hrs, pH 7.5.

For orientation: IC50 means the concentration that gives 50% inhibition. Read a high IC50 as weaker potency.

HCoV-229E 3CL protease, sequence (P0C6U2 2966-3267): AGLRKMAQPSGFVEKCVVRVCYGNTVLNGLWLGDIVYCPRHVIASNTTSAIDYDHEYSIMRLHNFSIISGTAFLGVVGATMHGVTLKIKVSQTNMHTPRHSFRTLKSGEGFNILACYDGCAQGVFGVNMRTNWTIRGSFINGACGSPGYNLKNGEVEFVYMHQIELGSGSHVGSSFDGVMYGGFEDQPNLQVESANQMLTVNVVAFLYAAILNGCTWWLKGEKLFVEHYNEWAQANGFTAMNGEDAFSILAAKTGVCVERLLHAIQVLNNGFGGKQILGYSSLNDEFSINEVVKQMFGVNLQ

`N#C[C@@H]1C[C@@H]2C(=O)NC[C@@H]2CCCC[C@H](NC(=O)C(F)(F)F)C(=O)N2C[C@@H]3CCC[C@@H]3[C@H]2C(=O)N1` [Example 88] returned a half-maximal inhibitory concentration (IC50) of under 100 nM.
With `CC1(C)[C@@H]2[C@H]3C(=O)N[C@H](C#N)C[C@@H]4C(=O)NC[C@@H]4CCCC[C@H](NC(=O)CC4CC(F)(F)C4)C(=O)N3C[C@@H]21` [Example 89], the IC50 is under 100 nM.
Under `CC1(C)[C@@H]2[C@H]3C(=O)N[C@H](C#N)C[C@@H]4C(=O)NC[C@@H]4CCCC[C@H](NC(=O)CC4CCCC4)C(=O)N3C[C@@H]21` [Example 90] stands under 100 nM; under `CC1(C)[C@@H]2[C@H]3C(=O)N[C@H](C#N)C[C@@H]4C(=O)NC[C@@H]4CCCC[C@H](NC(=O)c4ccncn4)C(=O)N3C[C@@H]21` [Example 91], under 100 nM.
`CC(C)(C)OC(=O)N[C@H]1CC/C=C/[C@H]2CNC(=O)[C@H]2C[C@@H](C#N)NC(=O)[C@@H]2[C@@H]3[C@H](CN2C1=O)C3(C)C` [Example 92] came in with an IC50 of under 100 nM.
Under `N#C[C@@H]1C[C@@H]2C(=O)NCC[C@@H]2CCCC[C@H](NC(=O)OC2CCCC2)C(=O)N2C[C@@H]3CCC[C@@H]3[C@H]2C(=O)N1` [Example 93] stands under 100 nM; under `N#C[C@@H]1C[C@@H]2C(=O)NC[C@@H]2CCCC[C@H](NC(=O)OC2CCCC2)C(=O)N2C[C@@H]3CCC[C@@H]3[C@H]2C(=O)N1` [Example 94], under 100 nM.
Under `CC(C)(C)CC(=O)N[C@H]1CCCC[C@H]2CCNC(=O)[C@H]2C[C@@H](C#N)NC(=O)[C@@H]2[C@H]3CCC[C@H]3CN2C1=O` [Example 95] stands under 100 nM; under `CC(C)(C)OC(=O)N[C@H]1CC/C=C\[C@H]2CCNC(=O)[C@H]2CC(C#N)NC(=O)[C@@H]2[C@H]3CCC[C@H]3CN2C1=O` (stereo partly drawn) [Example 97], under 100 nM; under `CC(C)(C)OC(=O)N[C@H]1CCCC[C@H]2CCNC(=O)C2C[C@@H](C#N)NC(=O)[C@@H]2[C@H]3CCC[C@H]3CN2C1=O` (stereo partly drawn) [Example 98], under 100 nM.
Under `CC(C)(C)OC(=O)N[C@H]1CC/C=C/[C@H]2CCNC(=O)[C@H]2C[C@@H](C#N)NC(=O)[C@@H]2[C@H]3CCC[C@H]3CN2C1=O` [Example 99] stands 1000 to 20000 nM.
Take `CC(C)(C)OC(=O)N[C@H]1CCC[C@H]2CCNC(=O)[C@H]2C[C@@H](C#N)NC(=O)[C@@H]2[C@H]3CCC[C@H]3CN2C1=O` [Example 100]: the IC50 is 100 to 1000 nM.
In the case of `N#C[C@@H]1C[C@@H]2C(=O)NC[C@@H]2/C=C/CC[C@H](NC(=O)C(F)(F)F)C(=O)N2C[C@@H]3CCC[C@@H]3[C@H]2C(=O)N1` [Example 101] it was under 100 nM.
`CC(C)(C)OC(=O)N[C@H]1COCCC[C@H]2CNC(=O)[C@H]2C[C@@H](C#N)NC(=O)[C@@H]2[C@@H]3[C@H](CN2C1=O)C3(C)C` [Example 102] returned a half-maximal inhibitory concentration (IC50) of under 100 nM.
Under `CC1(C)[C@@H]2[C@H]3C(=O)N[C@H](C#N)C[C@@H]4C(=O)NC[C@@H]4CCCC[C@H](NC(=O)c4ccc(F)cc4F)C(=O)N3C[C@@H]21` [Example 103] stands under 100 nM; under `CC1(C)[C@@H]2[C@H]3C(=O)N[C@H](C#N)C[C@@H]4C(=O)NCC[C@@H]4CCCC[C@H](NC(=O)C(F)(F)F)C(=O)N3C[C@@H]21` [Example 104], under 100 nM.
As for `CC(C)(C)OC(=O)N[C@H]1CCCC[C@H]2CNC(=O)[C@H]2C[C@@H](C#N)NC(=O)[C@@H]2CC3(CC3)CN2C1=O` [Example 105], the IC50 was under 100 nM.
In the case of `CC(C)(C)COC(=O)N[C@H]1CCCC[C@H]2CNC(=O)[C@H]2C[C@@H](C#N)NC(=O)[C@@H]2[C@@H]3[C@H](CN2C1=O)C3(C)C` [Example 106] it was under 100 nM.
In the case of `CC1(C)[C@@H]2[C@H]3C(=O)N[C@H](C#N)C[C@@H]4C(=O)NC[C@@H]4CCCC[C@H](NC(=O)c4cncnc4)C(=O)N3C[C@@H]21` [Example 107] it was under 100 nM; in that of `CC1(C)[C@@H]2[C@H]3C(=O)N[C@H](C#N)C[C@@H]4C(=O)NC[C@@H]4/C=C/CC[C@H](NC(=O)C(F)(F)F)C(=O)N3C[C@@H]21` [Example 108], under 100 nM; in that of `Cc1cc(C(=O)N[C@H]2CCCC[C@H]3CNC(=O)[C@H]3C[C@@H](C#N)NC(=O)[C@@H]3[C@@H]4[C@H](CN3C2=O)C4(C)C)on1` [Example 109], under 100 nM.
In the case of `CC(C)(C)OC(=O)N[C@H]1CCCC[C@H]2CCNC(=O)[C@H]2C[C@@H](C#N)NC(=O)[C@@H]2[C@@H]3[C@H](CN2C1=O)C3(C)C` [Example 110] it was under 100 nM; in that of `CC(C)(C)OC(=O)N[C@H]1CCCC[C@H]2CNC(=O)[C@H]2C[C@@H](C#N)NC(=O)[C@@H]2[C@H]3CC[C@H](CC3)N2C1=O` [Example 111], 100 to 1000 nM; in that of `CC(C)(C)OC(=O)N[C@H]1CC/C=C/[C@H]2CNC(=O)[C@H]2C[C@@H](C#N)NC(=O)[C@@H]2[C@H]3CCC[C@H]3CN2C1=O` [Example 112], under 100 nM.
As for `Cc1nc(C(=O)N[C@H]2CCCC[C@H]3CNC(=O)[C@H]3C[C@@H](C#N)NC(=O)[C@@H]3[C@@H]4[C@H](CN3C2=O)C4(C)C)cs1` [Example 113], the IC50 was in the range of 100 to 1000 nM.
Turning to `CC(C)(C)OC(=O)N[C@H]1CC/C=C\[C@H]2CCNC(=O)[C@H]2C[C@@H](C#N)NC(=O)[C@@H]2[C@@H]3[C@H](CN2C1=O)C3(C)C` [Example 114], the IC50 was under 100 nM.
Under `Cc1nc(C(=O)N[C@H]2CCCC[C@H]3CNC(=O)[C@H]3C[C@@H](C#N)NC(=O)[C@@H]3[C@@H]4[C@H](CN3C2=O)C4(C)C)co1` [Example 115] stands under 100 nM.
Under `CC1(C)[C@@H]2[C@H]3C(=O)N[C@H](C#N)C[C@@H]4C(=O)NC[C@@H]4CCCC[C@H](NC(=O)c4ccc(F)c(C(F)(F)F)c4)C(=O)N3C[C@@H]21` [Example 116] stands under 100 nM; under `CC1(C)[C@@H]2[C@H]3C(=O)N[C@H](C#N)C[C@@H]4C(=O)NC[C@@H]4CCCC[C@H](NC(=O)C4(C(F)(F)F)CC4)C(=O)N3C[C@@H]21` [Example 117], under 100 nM.
In the case of `CC1(C(=O)N[C@H]2CCCC[C@H]3CNC(=O)[C@H]3C[C@@H](C#N)NC(=O)[C@@H]3[C@@H]4[C@H](CN3C2=O)C4(C)C)CCC1` [Example 118] it was under 100 nM; in that of `CC1(C)[C@@H]2[C@H]3C(=O)N[C@H](C#N)C[C@@H]4C(=O)NC[C@@H]4CCCC[C@H](NC(=O)C45CC(C(F)(F)F)(C4)C5)C(=O)N3C[C@@H]21` [Example 119], under 100 nM.
Compound `CC1(C)[C@@H]2[C@H]3C(=O)N[C@H](C#N)C[C@@H]4C(=O)NC[C@@H]4CCCC[C@H](NC(=O)c4ccc(Cl)c(Cl)c4)C(=O)N3C[C@@H]21` [Example 120] showed an IC50 of under 100 nM.
Under `CC(C)(C(=O)N[C@H]1CCCC[C@H]2CNC(=O)[C@H]2C[C@@H](C#N)NC(=O)[C@@H]2[C@@H]3[C@H](CN2C1=O)C3(C)C)c1ccc(Cl)cc1` [Example 121] stands under 100 nM; under `Cc1cc(C(=O)N[C@H]2CCCC[C@H]3CNC(=O)[C@H]3C[C@@H](C#N)NC(=O)[C@@H]3[C@@H]4[C@H](CN3C2=O)C4(C)C)no1` [Example 122], under 100 nM.
Under `CC1(C(=O)N[C@H]2CCCC[C@H]3CNC(=O)[C@H]3C[C@@H](C#N)NC(=O)[C@@H]3[C@@H]4[C@H](CN3C2=O)C4(C)C)COC1` [Example 123] stands under 100 nM.
Under `CC1(C)[C@@H]2[C@H]3C(=O)N[C@H](C#N)C[C@@H]4C(=O)NCC[C@@H]4CCCC[C@H](NC(=O)OC4CCCC4)C(=O)N3C[C@@H]21` [Example 124] stands under 100 nM.
